From patent US6465450B2, “Vanadium (IV) complexes containing catecholate ligand and having spermicidal activity” (Parker Hughes Institute, priority 1999, dated 2002)
Like-named read-outs stand apart in the source and are kept apart here.

Columns and labels:
human sperm [1] = assay: Sperm immobilization assay (SIA), 3 h incubation, motility by CASA; type: cell-based; details: for EC50: motile fractions of human sperm incubated 3 h with increasing concentrations, 37° C., read-out: EC50 (concentration of compound required for 50% sperm motility loss)
Experimental: Sperm Immobilization Assay (SIA): To evaluate the spermicidal effects of complexes 1-4 a highly motile fraction of pooled donor sperm(n=5) was prepared by discontinuous (90-45%) Percoll gradient (Conception Technologies, San Diego, Calif.) centrifugation and the “swim-up” method as described previously (Aitken et al., 1989, Biol. Reprod. 40:183-197). All donor specimens were obtained after informed consent and in compliance with the guidelines of the Hughes Institutional Review Board. Motile sperm (≧10×10^6/ml) were suspended in 1 ml of Biggers, Whitten, and Whittingam's medium (BWW) containing 0.3% BSA (fraction V; Sigma Chemical Co., St. Louis, Mo.) in the presence and absence of serial 2-fold dilutions of test substance (250 μM -1.9 μM) in 0.25% dimethyl sulfoxide (DMSO). For each experiment, fresh stock solutions (100 mM) of vanadium compounds were prepared in DMSO. A corresponding volume of DMSO […] was added to control sperm suspension. After 3hours of incubation at 37° C., the percentage of motile sperm was evaluated by computer-assisted sperm motion analysis (CASA) as described previously (Aitken et al., 1989, Supra). The percentages of motilities were compared with those of sham-treated control suspensions of motile sperm. The spermicidal activity of test compounds was expressed as the EC50 values (the final concentration of the compound in medium that decreases the proportion of motile sperm by 50%).
(§1) Sperm Kinematic Parameters: For CASA, 4 μl each of sperm suspension was loaded into two 20 μm Microcell chambers placed onto a counting chamber at 37° C. At least 5-8 fieldsper chamber were scanned for analysis using a Hamilton Thorne Integrated Visual Optical System (IVOS) version 10 instrument (Hamilton Thorne Research Inc., Danvers, Mass.). Each field was recorded for 30 seconds. The Hamilton Thorne computer calibrations were set at 30 frames at a frame rate of 30 images/seconds. Other settings were as follows: minimum contrast 8; minimum size 6; low-size gate, 1.0; high-size gate, 2.9; low-intensity gate, 0.6; high-intensity gate, 1.4; phase-contrast illumination; low path velocity at 10 μm/seconds and threshold straightness at 80%; magnification factor, 1.95. The performance of the analyzer was periodically checked using the playback function.
The attributes of sperm kinematic parameters evaluated included numbers of motile (MOT) and progressively (PRG) motile sperm; curvilinear velocity (VCL; a measure of the total distance traveled by a given sperm during the acquisition divided by the time elapsed); average path velocity (VAP; the spatially averaged path that eliminates the wobble of the sperm head), straight-line velocity (VSL; the straight-line distance from beginning to end of track divided by time taken), beat-cross frequency (BCF; frequency of lateral head displacement), (ALH; the mean width of sperm head oscillation), and the derivatives, straightness (STR=VSL divided by VAP×100), linearity (LIN=VSL divided by VCL×100, departure of sperm track from a straight line). Data from each individual cell track were recorded and analyzed. At least 200 sperm were analyzed for each aliquot sampled.
A non-linear regression analysis was used to find the EC50 and T1/2 values (the concentration of the compound, and the time required for 50% sperm motility loss, respectively) from the concentration effect curves.

human sperm [2] = assay: Time course of sperm immobilization by CASA; type: cell-based; details: motile sperm incubated of each complex (footnote); motility by CASA at timed intervals
Experimental: […] At timed intervals (every 5 and 10 minutes) aliquots (4μl) were transferred to two 20 μm Microcell (Conception Technologies) chambers, and sperm motility was assessed by CASA.
as §1, with “function. […]” for “function.”

[3] = Stability of the complexes as solids or in solution (cyclic voltammetry and UV-vis spectroscopy)
Experimental: UV/Vis Spectra: A UV/vis polarizer attachment was used for the polarization experiments. UV-vis spectra were recorded in a quartz cell or cuvette on a Beckman Model DU 7400 spectrophotometer and the spectral bands were registered in the 200-800 nm range.
Electrochemical Measurements: Electrochemical measurements were performed on a Bioanalytical Systems B/W 100b electrochemical analyzer with internal resistance (IR) compensation. The cyclic voltammograms taken in acetonitrile were obtained in a 0.1 M Bu4NPF6 (TABP) electrolyte solution with a 0.1 M Ag/AgNO3 reference electrode, a Platinum Disc working electrode, and a platinum wire auxiliary electrode. Solutions were purged with nitrogen: and scanned at 200 mV/s. Aqueous cyclic voltammograms were taken in a standard PBS solution, using a Ag/AgCl reference electrode, a glassy carbon working electrode, and a platinum wire auxiliary electrode. Solutions were purged with nitrogen and scanned at 200 mV/s. All potentials were referenced to the ferrocene-ferrocinium couple (E1/2=0.185 V vs Ag/AgCl in PBS).

Compound: [O-]c1ccccc1[O-].[V+2].c1cc[cH-]c1.c1cc[cH-]c1 [Cp2V(cat) (2), Vanadocene catecholate.]
- EC50 (human sperm [1]): 2400 nM
- T1/2 (time required for 50% sperm motility loss) (human sperm [2]): 5.8 min

Compound: [O-]c1c([O-])c(Cl)c(Cl)c(Cl)c1Cl.[V+2].c1cc[cH-]c1.c1cc[cH-]c1 [Cp2V(catCl4) (1), Vanadocene tetrachloro catecholate]
- spermicidal activity in words (human sperm [1]; in the concentration ranges examined): no spermacidal activity
- EC50 (human sperm [1]): > 250000 nM
- t1/2 (stability) ([3]; in acetonitrile, air, by cyclic voltammetry and UV-vis spectroscopy): about 2 hr.
- solubility in water: not soluble in water

Compound: CC(C)(C)c1cc([O-])c([O-])c(C(C)(C)C)c1.[V+4].c1cc[cH-]c1.c1cc[cH-]c1 [Cp2V(dbcat) (5), Vanadocene 1,3 ditertbutyl catecholate]
- t1/2 (stability) [3]: about 2 min.

Compound: Vanadocene 1,3-diisopropyl catecholate [Cp2V(dpcat) (4)]
- EC50 (human sperm [1]): 290 nM

Compound: Vanadocene mono-tertbutyl catecholate [Cp2V(mbcat) (3)]
- EC50 (human sperm [1]): 100 nM
- T1/2 (time required for 50% sperm motility loss) (human sperm [2]): 5.4 min
